pIC50: −log10 of the molar value. Values joined by “and” are separate entries in the source; they are usually repeats but may differ in a detail not shown here. Identical values can stand only once. Like-named read-outs stand apart in the source and are kept apart here.

Experiment [1] concerns T. cruzi intracellular amastigotes. Briefly: In vitro anti-T. cruzi intracellular amastigote growth inhibition assay (tdTomato fluorescence over 72 hours, Vero cells). It counts as cell-based, Trypanosoma cruzi. The conditions noted are these: for IC50: intracellular T. cruzi, Fig. 5f, read-out: IC50 (nM) T. cruzi intra-; for activity at 0.00407 µM: [uM] -2.39 [sic]. Here is the method:
(§1) The in vitro anti-T. cruzi amastiogote activity assay was performed and optimized based on the protocol described previously. The change in tdTomato fluorescence intensity was determined as a measurement of growth over 72 hours of culture. For assaying drug effects on extracellular amastigotes, trypomastigotes were collected from infected Vero cell cultures and converted in acidic media as previously described. Amastigotes (50,000/well) were incubated with 2-fold serial dilutions of compounds for 48 hours. The ATP production was used as an indication of growth in this case, and was measured by ATPlite Luminescence ATP Detection Assay System (PerkinElmer). Both fluorescence and luminescence were read using a BioTek Synergy Hybrid Multi-Mode reader equipped with the software Gene5 v 2.0 (BioTek). The dose-response curve was generated by […] analysis with GraphPad Prism v9.4.0 (GraphPad Software).

Experiment [2] concerns T. cruzi extracellular amastigotes. Nature of the experiment: Extracellular amastigote assay (ATPlite luminescence, 48 hours). It counts as cell-based. Conditions: Trypanosoma cruzi, extracellular amastigotes; for IC50: 48 hours, Fig. 5f, Extended Data Fig. 4d, read-out: IC50 (nM) T. cruzi extra-. Here is the method:
as §1
In general terms: ATP-based viability assays read luminescence as a measure of living cells.

For experiment [3], the system named is CPSF3-OE T. cruzi intracellular amastigotes. Nature of the experiment: microbe, parasite or virus in culture. It is filed as cell-based. The conditions noted are these: Trypanosoma cruzi; for pIC50: read-out: CPSF3-OE IC50, intracellular amastigotes; for activity at 0.1 µM / activity at 0.4 µM / activity at 0.7 µM / activity at 1 µM / activity at 1.3 µM / activity at 1.6 µM: 72 h, read-out: % of maximum, CPSF3-OE. Here is the method: as §1
The CPSF3 gene was amplified using primers ‘[…]’ and ‘[…]’, and integrated into the pTrex vector [47] by NEBuilder HiFi DNA assembly (New England Biolabs). The construct of pTrex-CPSF was then transfected into Brazil tdTomato epimastigotes and selected by 60ug/ml blasticidin.
To confirm the CPSF overexpression in the selected transfectants, RNA was extracted as previously described and converted to cDNA using SuperScript Reverse Transcriptase (Invitrogen). Quantitative PCR reactions were performed in triplicate on the C1000 Touch Bio-Rad CFX96 real-time PCR detection system for CPSF using primer sets CPSF-1 (5'-[…]-3' and 5'-[…]-3') and CPSF-2 (5'-[…]-3' and 5'-[…]-3') in both control and CPSF over-expressing parasites, and the expression level was normalized to tubulin which was amplified using primers: ‘[…]’ and ‘[…]’.

For experiment [4], the system named is TcCBP KO T. cruzi intracellular amastigotes. Nature of the experiment: microbe, parasite or virus in culture. The conditions noted are these: Trypanosoma cruzi, read-out: TcCBP KO IC50. It counts as cell-based. Here is the method:
as §1
The CBPs knockout was produced using ribonucleoprotein (RNP) complexes as previously described. Briefly, Brazil tdTomato strain epimastigotes were electroporated with RNP complexes containing SaCas9 and an sgRNA targeting CBP gene TcBrA4_0048170, plus a repair template containing stop codons in all three reading frames and the M13 sequence for use as a PCR anchor. The sgRNA targeted the ‘[…]” sequence. After 2 days of recovery, single-cell clones were derived by depositing epimastigotes into a 96-well plate at a density of 0.5 cell/well by using a MoFlo Astrios EQ cell sorter (Beckman Coulter). DNA isolation was performed for clones, and primer pair of 5’-[…]-3’ and 5’- […] -3’ was used for amplifying the wild type allele, while primer pair of M13-F: 5’- […] -3’ and 5’- […] -3’ was used for amplifying the mutant allele.

The subject of experiment [5] is tdTomato expressing T. cruzi (CL strain). Briefly: Rapid in vivo assay: footpad infection, single oral dose, fluorescence imaging 2 and 4 dpi (proliferation index).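 Also: single oral dose of 50 mg/kg given at 2 dpi.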 The arrangement: species or system C57BL/6 mice. The conditions noted are these: Fig. 3a; individual footpads. Here is the method:
Fluorescent intensity of the feet was measured at 2 dpi before compound administration and at 4 dpi in the Maestro in vivo imaging system equipped with the software Maestro 2.1.0 (CRi) as previously described. The proliferation index was estimated as PI=[(T4d – T2d)/(mUnt4d-mUnt2d)]*100; where T4d and T2d are the fluorescence intensity of the feet of the treated animals at days 4 and 2 post-infection respectively; mUnt4d and mUnt2d are the average fluorescence intensity of the feet of the untreated animals at 4 and 2 dpi respectively.

The subject of another experiment is T. cruzi Brazil strain. Nature of the experiment: Mouse cure assays (daily oral treatment, immunosuppression, qPCR of skeletal muscle, blood microscopy, hemoculture). It is filed as in vivo, C57BL/6 mice. Conditions: individual mice. On the procedure: Male or female C57BL/6 mice were intraperitoneally infected with 10^4 trypomastigotes of the Brazil strain. Mouse infection was confirmed at 25-30 dpi by detection of CD8^+ T cells specific against the T. cruzi TSKb20 peptide in blood. Compounds resuspended in 1% carboxymethyl cellulose and 0.1% Tween 80, were administered daily by gavage at the specified concentrations. In order to optimally detect persistent infection, immune responses in the mice were suppressed by intraperitoneal injection of four doses of cyclophosphamide every 2-3 days (200 mg/kg/day), beginning one week after the end of therapeutic treatment. At the end of the immunosuppression regimen, peripheral blood was checked under light microscope for parasites and cultured in LDNT media. Mouse skeletal muscle samples were obtained at the end of the immunosuppression and processed for T. cruzi-DNA detection by qPCR as previously described.
On the technique in general: Real-time PCR tracks product formation cycle by cycle.

In the next experiment the test system is T. cruzi. Conditions: T. cruzi-infected NHPs; cited from earlier work.
Where [6] appears, read: Trypanosoma cruzi, Vero, in vitro, Fig. 1a, Extended Data Fig. 1a, read-out: T. cruzi IC50.
The mark [7] stands for this setting: Trypanosoma cruzi, Vero, 72 h, read-out: % of maximum, WT, single replicates.
Where [8] appears, read: Trypanosoma cruzi, Vero, read-out: WT IC50, WT intracellular amastigotes, control of CPSF3-OE comparison.
The mark [9] stands for this setting: Trypanosoma cruzi, Vero, read-out: WT IC50, WT intracellular amastigotes, control of TcCBP KO comparison.

What is called pIC50 is −log10 of the IC50, conventionally taken in molar units. In general, IC50 refers to the concentration needed to halve the response being measured. Consider `CC(C)[C@H](NC(=O)c1ccc2c(c1)B(O)OC2)C(=O)OCc1ccccc1` [AN10443], for which the pIC50 in experiment [1] (setting [6]) is 6.17. For the same compound, the IC50 in experiment [2] was 13 nM.
For `CC(C)[C@H](NC(=O)c1ccc2c(c1F)B(O)OC2)C(=O)OCc1ccccc1` [AN11622], the IC50 is greater than 1250 nM in experiment [1] (Trypanosoma cruzi, Vero) and 37 nM in experiment [2].
In the case of `Cc1c(C(=O)N[C@H](C(=O)OCc2ccccc2)C(C)C)ccc2c1B(O)OC2` [AN11735], the IC50 in experiment [2] came out at 1.2 nM.
Regarding `Cc1c(C(=O)NC(C(=O)OCc2ccc(F)cc2)C(C)C)ccc2c1B(O)OC2` (stereo not shown) [AN11736, 4-fluorobenzyll-valinate amide benzoxaborole], in experiment [1] (setting [7]), the activity at 0.00407 µM came out at 46%. The pIC50 is 8.49 in experiment [1] (setting [8]), 8.49 in experiment [1] (setting [9]), 8.19 in experiment [3] and 6.21 in experiment [4]. In experiment [1] (WT, [uM] -1.43 as printed, single replicates), the “% of maximum” value is -1% and 1%.
Take `CCc1c(C(=O)N[C@H](C(=O)OCc2ccccc2)C(C)C)ccc2c1B(O)OC2` [AN14557]: the IC50 in experiment [1] (Trypanosoma cruzi, Vero) was 37 nM; in experiment [2], 1.5 nM.
Regarding `CC(C)C(NC(=O)c1ccc2c(c1C1CC1)B(O)OC2)C(=O)OCc1ccccc1` (stereo not shown) [AN14577], the IC50 in experiment [1] (Trypanosoma cruzi, Vero) was greater than 1250 nM; in experiment [2], 240 nM.
Turning to `CC(C)c1c(C(=O)NC(C(=O)OCc2ccccc2)C(C)C)ccc2c1B(O)OC2` (stereo not shown) [AN14630], the IC50 in experiment [1] (Trypanosoma cruzi, Vero) is greater than 1250 nM; in experiment [2] it was 13 nM.
Consider `Cc1c(C(=O)N[C@H](C(=O)O)C(C)C)ccc2c1B(O)OC2` [AN14667], for which the activity at 0.7 µM in experiment [1] (Trypanosoma cruzi, Vero, 72 h, read-out: % of maximum, WT, [uM] 0.70, single replicates) worked out at 43%; in experiment [1] (Trypanosoma cruzi, Vero, 72 h, read-out: % of maximum, WT, concentration 0.70 [uM] as printed), 43%; in experiment [1] (Trypanosoma cruzi, Vero, 72 h, read-out: % of maximum, intracellular, [uM] 0.70) it was 43%; in experiment [3] ([uM] 0.70, single replicates) it was 108%; in experiment [3] (concentration 0.70 [uM] as printed), 108%. The activity at 1 µM was found to be 0% in experiment [1] (Trypanosoma cruzi, Vero, 72 h, read-out: % of maximum, WT, [uM] 1.00, single replicates); 89% in experiment [3] ([uM] 1.00, single replicates); 89% in experiment [3] (concentration 1.00 [uM] as printed). Also, the activity at 0.1 µM in experiment [1] (Trypanosoma cruzi, Vero, 72 h, read-out: % of maximum, intracellular, [uM] 0.10) stood at 86%; in experiment [3] ([uM] 0.10, single replicates), 97%; in experiment [3] (concentration 0.10 [uM] as printed), 97%. Also, the activity at 0.4 µM in experiment [1] (Trypanosoma cruzi, Vero, 72 h, read-out: % of maximum, intracellular, [uM] 0.40) turned out to be 66%; in experiment [3] ([uM] 0.40 as printed, single replicates), 102%; in experiment [3] (concentration 0.40 [uM] as printed) it was 102%. The activity at 1.6 µM in experiment [1] (Trypanosoma cruzi, Vero, 72 h, read-out: % of maximum, intracellular, [uM] 1.60) is 0%; in experiment [3] ([uM] 1.60 as printed, single replicates) it was 27%; in experiment [3] (concentration 1.60 [uM] as printed), 27%. The pIC50 is 5.24 in experiment [1] (setting [6]); 5.44 in experiment [1] (Trypanosoma cruzi, Vero, intracellular amastigotes, Fig. 2a, read-out: Intracellular IC50); 5.41 in experiment [2] (Fig. 2a, read-out: Extracellular IC50). The “reduced activity relative to ester prodrug” value in experiment [1] (both intra- and extracellular amastigotes) is ~ 1000 fold. Moreover, in experiment [1] (intracellular, [uM] 1.60), the “% of maximum” value is on record as 0%. The activity at 1.3 µM in experiment [3] ([uM] 1.30 [sic], single replicates) is 59%; in experiment [3] (concentration 1.30 [uM] as printed), 59%.
For the compound `Cc1c(C(=O)N[C@H](C(=O)OC2CCOCC2)C(C)C)ccc2c1B(O)OC2` [AN15572], the pIC50 in experiment [1] (setting [6]) was 7.96.
Consider `Cc1c(C(=O)NC(C(=O)OCC2CCOC2)C(C)C)ccc2c1B(O)OC2` (stereo not shown) [AN16109], for which, in experiment [1] (setting [7]), the activity at 0.00407 µM turned out to be 75%. The pIC50 in experiment [1] (setting [8]) is 8.18; in experiment [1] (setting [9]) it was 8.18; in experiment [1] (setting [6]) it was 8.30; in experiment [3] it was 7.64; in experiment [4], 5.60. For the same compound, the “% of maximum” value in experiment [1] (WT, [uM] 0.00 as printed, single replicates) turned out to be 0%; in experiment [1] (WT, [uM] -1.91 as printed, single replicates), 13%. In addition, the “Parasite proliferation index of footpads infected with tdTomato-expressing T. cruzi” value in experiment [5] was 52.8 and 35.3 and 33.3 and 35.0 and 26.3 and 26.8 and -3.0 and 4.6 and 35.6 and 29.4. Further, the “Parasite equivalent/ 50 ng of DNA of skeletal muscle” value in the experiment with T. cruzi Brazil strain (Fig. 3c, mice treated for 20 days) was 0.11 Parasite equivalent/ 50 ng of DNA and 0.27 Parasite equivalent/ 50 ng of DNA and 0.0541 Parasite equivalent/ 50 ng of DNA and 0.0079 Parasite equivalent/ 50 ng of DNA and 0.12 Parasite equivalent/ 50 ng of DNA and 0.0367 Parasite equivalent/ 50 ng of DNA; in the experiment with T. cruzi Brazil strain (Fig. 3e, mice treated for 40 days with 2.5 mg/kg, 2.5 mg/kg), 0.223 Parasite equivalent/ 50 ng of DNA and 0.2345 Parasite equivalent/ 50 ng of DNA and 0.468 Parasite equivalent/ 50 ng of DNA and 0.01907 Parasite equivalent/ 50 ng of DNA and 0.1637 Parasite equivalent/ 50 ng of DNA and 1.455 Parasite equivalent/ 50 ng of DNA and 0.04407 Parasite equivalent/ 50 ng of DNA and 0.06524 Parasite equivalent/ 50 ng of DNA.
For `O=C(Cn1ccnc1[N+](=O)[O-])NCc1ccccc1` [BNZ], the “Parasite proliferation index of footpads infected with tdTomato-expressing T. cruzi” value in experiment [5] is 23.6 and 6.5 and 46.7 and 1.3 and 29.6 and 25.1 and 51.0 and 55.7 and -21.7 and -21.2.
As for `CC[C@@H]([C@H](C)O)n1ncn(-c2ccc(N3CCN(c4ccc(OC[C@@H]5CO[C@@](Cn6cncn6)(c6ccc(F)cc6F)C5)cc4)CC3)cc2)c1=O` [posaconazole], the “failures in treatment trial” value in the experiment on T. cruzi is 100%.

These data come from PMC9519446, “Discovery of an Orally Active Benzoxaborole Prodrug Effective in the Treatment of Chagas Disease in Non-human Primates” (Nature microbiology, 2022).
